This assay concerns mice. In words: Neuropharmacological Assay (SmartCube): automated behavioral signature of compound-treated mice compared with a database of reference drug classes. Format: in vivo. As to conditions: for minimal effective dose: Mus musculus, ip, minimal effective dose: dose having 45% or more total activity in SmartCube, i.p., if only one dose was tested, that dose is shown, read-out: MED; for AD / AG / AN / AP / AX / CE / HL / MS / PS / SH / UK: SmartCube probability class, 3.0 mg/kg dose, i.p. 15 min before the behavioral test. The procedure, abridged:
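Mice dosed i.p. 15 min before SmartCube testing, with compound in N-methyl-2-pyrrolidone/polyethylene glycol/propylene glycol. Video-captured behaviour is compared with a reference-drug signature database to give per-class probabilities, reported at 3.0 mg/kg. MED, from doses usually 0.3–10 mg/kg, is the lowest dose giving ≥45% total activity.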

Counter-ions that a name gives are not always drawn. Some results are limits rather than exact numbers.

We go through seven compounds from patent US20260274814A1, “THIENYL COMPOUNDS FOR THE TREATMENT OF A CENTRAL NERVOUS SYSTEM DISEASE OR DISORDER” (Coreterra Therapeutics, Inc., priority 2023, published 2026).

`CNC1COc2scc(C)c2C1` (stereo not drawn) [Compound 308, N, 5-dimethyl-3,4-dihydro-2H-thieno[2,3-b]pyran-3-amine hydrochloride]: the minimal effective dose was less than 3 mg/kg, the AD entry is given as “ND (^ <4%)”, the AG result was “ND (^ <4%)” and the AN result is “ND (^ <4%)”. Also, the AP result was “++++ (≥74%)”, the AX entry was “ND (^ <4%)”, the CE result was “ND (^ <4%)” and the HL result is reported as “ND (^ <4%)”. For the same compound, the MS result was “ND (^ <4%)”, the PS entry is on record as “ND (^ <4%)”, the SH result is “ND (^ <4%)” and the UK entry is given as “ND (^ <4%)”.

Take `NC1Cc2ccsc2C1` (stereo not drawn) [Compound 311, 5,6-dihydro-4H-cyclopenta[b]thiophen-5-amine hydrochloride]: the minimal effective dose turned out to be 3 mg/kg, the AD entry is “++ (≥24%)”, the AG entry was “ND (^ <4%)” and the AN result is listed as “ND (^ <4%)”. Besides, the AP entry is given as “ND (^ <4%)”, the AX entry is “ND (^ <4%)”, the CE result is reported as “ND (^ <4%)” and the HL entry is listed as “ND (^ <4%)”. Further, the MS result is “ND (^ <4%)”, the PS entry is listed as “ND (^ <4%)”, the SH result is “ND (^ <4%)” and the UK entry was “+++ (≥49%)”.

In the case of `CNC1COc2scc(C#N)c2C1` (stereo not drawn) [Compound 322, 3-(methylamino)-3,4-dihydro-2H-thieno[2,3-b]pyran-5-carbonitrile hydrochloride], the minimal effective dose stood at 3 mg/kg, the AD entry was “ND (^ <4%)”, the AG entry is listed as “ND (^ <4%)” and the AN entry is “ND (^ <4%)”. Besides, the AP result is “+++ (≥49%)”, the AX result is given as “ND (^ <4%)”, the CE entry is given as “ND (^ <4%)” and the HL entry is recorded as “ND (^ <4%)”. Besides, the MS result was “ND (^ <4%)”, the PS result is reported as “ND (^ <4%)”, the SH entry is reported as “ND (^ <4%)” and the UK entry is “++ (≥24%)”.

Take `NC1CCCc2ccsc2C1` (stereo not drawn) [Compound 323, 5,6,7,8-tetrahydro-4H-cyclohepta[b]thiophen-7-amine hydrochloride]: the minimal effective dose worked out at 3 mg/kg, the AD result is recorded as “++ (≥24%)”, the AG result is given as “ND (^ <4%)” and the AN entry is “ND (^ <4%)”. In addition, the AP result is reported as “++ (≥24%)”, the AX entry was “+ (≥4%)”, the CE result is recorded as “ND (^ <4%)” and the HL result is “ND (^ <4%)”. Moreover, the MS entry is given as “ND (^ <4%)”, the PS result was “ND (^ <4%)”, the SH entry is on record as “ND (^ <4%)” and the UK entry is on record as “+ (≥4%)”.

Consider `CNC1CCCc2sccc2C1` (stereo not drawn) [Compound 326, N-methyl-5,6,7,8-tetrahydro-4H-cyclohepta[b]thiophen-5-amine hydrochloride], for which the minimal effective dose amounted to 3 mg/kg, the AD result is reported as “ND (^ <4%)”, the AG entry was “ND (^ <4%)” and the AN result is on record as “ND (^ <4%)”. Further, the AP entry was “ND (^ <4%)”, the AX entry was “++ (≥24%)”, the CE entry is “ND (^ <4%)” and the HL entry is reported as “ND (^ <4%)”. Besides, the MS entry is listed as “ND (^ <4%)”, the PS entry was “ND (^ <4%)”, the SH result is recorded as “ND (^ <4%)” and the UK result is recorded as “++ (≥24%)”.

As to `CNC1CCc2ccsc2CC1` (stereo not drawn) [Compound 327, N-methyl-5,6,7,8-tetrahydro-4H-cyclohepta[b]thiophen-6-amine hydrochloride], the minimal effective dose came out at 3 mg/kg, the AD result was “ND (^ <4%)”, the AG entry was “ND (^ <4%)” and the AN entry is “ND (^ <4%)”. Besides, the AP result was “ND (^ <4%)”, the AX entry was “++ (≥24%)”, the CE entry is reported as “ND (^ <4%)” and the HL entry was “ND (^ <4%)”. Further, the MS result is “ND (^ <4%)”, the PS entry is “ND (^ <4%)”, the SH result is given as “ND (^ <4%)” and the UK entry is listed as “+++ (≥49%)”.

On to `CNC1(C)Cc2ccsc2C1` (stereo not drawn) [Compound 328, N, 5-dimethyl-5,6-dihydro-4H-cyclopenta[b]thiophen-5-amine hydrochloride], for which the minimal effective dose is 3 mg/kg, the AD result is “++ (≥24%)”, the AG entry is “ND (^ <4%)” and the AN entry was “ND (^ <4%)”. Besides, the AP entry is recorded as “ND (^ <4%)”, the AX result is listed as “+ (≥4%)”, the CE result was “ND (^ <4%)” and the HL entry is “+ (≥4%)”. Moreover, the MS entry is given as “ND (^ <4%)”, the PS result was “++ (≥24%)”, the SH entry is “ND (^ <4%)” and the UK result was “+ (≥4%)”.
